In brackets after ≈: the same amount, converted by molar mass. Square brackets hold non-standard residues; d marks the D form. Peptide text beside a SMILES is read from it. * marks the point of attachment. Stearoyl = CCCCCCCCCCCCCCCCCC(=O)*; 12Ado = NCCCCCCCCCCCC(=O)O; Aoc = NCCCCCCCC(=O)O; Ahp = NCCCCCCC(=O)O; Ahx = NCCCCCC(=O)O; Ava = NCCCCC(=O)O; GABA = NCCCC(=O)O
Legend:
[1] = target: T1, PLC-γ1 (Bos taurus, UniProt P08487); assay: PLC-inhibiting activity (release of [3H]inositol phosphate from [3H]PIP2); type: biochemical, bovine; details: 37°C, 10 minutes, pH 6.0, read-out: Inhibition rate (%)
T1 construct: A sample of PLC-γ1 was prepared from bovine thymus; from tissue; host or cells: bovine thymus
T1 sequence (P08487 1-1291): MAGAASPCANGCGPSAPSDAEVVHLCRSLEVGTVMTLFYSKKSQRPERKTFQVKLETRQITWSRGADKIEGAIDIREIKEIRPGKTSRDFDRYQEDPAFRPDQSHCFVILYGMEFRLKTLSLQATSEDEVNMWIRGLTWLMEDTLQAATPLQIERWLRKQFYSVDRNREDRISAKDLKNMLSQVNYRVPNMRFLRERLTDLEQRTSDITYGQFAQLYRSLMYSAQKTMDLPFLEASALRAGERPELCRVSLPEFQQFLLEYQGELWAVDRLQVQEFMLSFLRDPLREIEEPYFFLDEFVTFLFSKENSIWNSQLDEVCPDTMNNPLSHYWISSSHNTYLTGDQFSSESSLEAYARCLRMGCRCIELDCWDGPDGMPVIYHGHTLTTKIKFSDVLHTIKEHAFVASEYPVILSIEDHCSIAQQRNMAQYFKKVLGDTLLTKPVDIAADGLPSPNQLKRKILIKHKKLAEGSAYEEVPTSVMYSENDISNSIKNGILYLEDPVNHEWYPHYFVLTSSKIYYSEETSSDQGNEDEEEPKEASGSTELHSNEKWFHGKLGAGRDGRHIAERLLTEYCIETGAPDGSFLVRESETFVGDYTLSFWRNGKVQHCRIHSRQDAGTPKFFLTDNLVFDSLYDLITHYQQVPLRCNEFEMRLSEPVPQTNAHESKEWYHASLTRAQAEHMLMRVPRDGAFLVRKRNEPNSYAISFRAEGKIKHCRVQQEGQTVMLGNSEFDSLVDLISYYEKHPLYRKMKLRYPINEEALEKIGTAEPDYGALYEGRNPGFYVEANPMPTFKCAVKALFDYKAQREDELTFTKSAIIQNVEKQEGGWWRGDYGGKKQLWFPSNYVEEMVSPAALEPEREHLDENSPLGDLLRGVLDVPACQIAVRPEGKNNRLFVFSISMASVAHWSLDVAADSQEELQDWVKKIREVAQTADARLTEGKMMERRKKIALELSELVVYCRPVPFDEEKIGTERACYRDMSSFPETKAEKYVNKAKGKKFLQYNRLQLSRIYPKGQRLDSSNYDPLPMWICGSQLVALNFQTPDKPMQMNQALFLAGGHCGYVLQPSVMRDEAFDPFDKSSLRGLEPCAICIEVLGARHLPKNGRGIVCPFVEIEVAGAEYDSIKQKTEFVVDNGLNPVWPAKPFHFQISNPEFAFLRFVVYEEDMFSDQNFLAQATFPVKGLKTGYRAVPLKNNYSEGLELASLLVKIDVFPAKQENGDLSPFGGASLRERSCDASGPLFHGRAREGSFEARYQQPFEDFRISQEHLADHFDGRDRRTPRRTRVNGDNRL
Method: A sample of PLC-γ1 was prepared from bovine thymus according to the method described in Y. Honma et al., Biochem. J., 269, 13 (1990). A solution having the composition shown in Table 2 below was prepared on ice and was heated to 37°C to start reaction. After incubation for 10 minutes, 2 ml of a chloroform/methanol mixture (2:1, v/v) was added thereto to stop the reaction. The resulting inositol phosphate was extracted with 0.5 ml of 1 N hydrochloric acid. The extract was separated into two liquid phases by centrifugation (2000 x g, 3 minutes), and the amount of ^3H contained in the supernatant (0.7 ml) was measured with a scintillation counter. Table 2 [table] The inhibition rate (X) was calculated according to the following equation: X (%) = (A-C) / (B-C) x 100 [formula] where A is the obtained value of specific radioactivity, B is the value of specific radioactivity obtained when the same amount of water was added instead of the aqueous solution of the test peptide, and C is the value of specific radioactivity obtained when the same amount of water was added instead of the sample and the aqueous solution of the test peptide.

[2] = tested on: Bacillus subtilis No. 10707; type: cell-based; details: No. 10707, pH 7
Method: (§1) The antibacterial activity was determined by the agar dilution method using a medium (pH 7.0) which comprises 3 g/l Bacto-tryptone (Difco Laboratories), 1 g/l meat extract, 1 g/l glucose and 16 g/l agar.

[3] = tested on: Proteus vulgaris ATCC 6897; type: cell-based; details: ATCC 6897, pH 7
Method: as §1

[4] = tested on: KMS-4 cells; assay: Cell growth-inhibiting activity (BrdU incorporation, cell growth detection kit); type: cell-based; details: culturing with peptide for 17 hours
Method: The cell growth-inhibiting activity was determined using a cell growth detection kit (Amersham) in the following manner. KMS-4 cells [M. Nanba et al, International Journal of Cancer, 32, 697 (1983)] were suspended in DMEM medium (Nissui Pharmaceutical Co., Ltd.) containing 10% fetal calf serum at a density of 1-2 x 10^4 cells/ml, and 1 ml of the cell suspension was put into each well of a 24-well plate (Corning Inc.). The cells were cultured in a CO2 incubator (37°C, 5% CO2) for 2 days. Then, the medium was replaced with a fresh DMEM medium containing 10% fetal calf serum, and the test peptide was added thereto, followed by culturing for 17 hours. The medium was replaced with a serum-free DMEM medium, and 0.5 ml of a solution prepared by diluting labeled reagent 5-bromo-2'-deoxyuridine (BrdU) and 5-fluoro-2'-deoxyuridine (FdU) (10:1) 1000-fold with the same medium was added to each well, followed by culturing for 2 hours. Then the medium was removed, and the cells were immobilized with an acetic acid/ethanol solution. The immobilized cells were stained according to the method for the cell growth detection kit of Amersham, and then further stained with a 1% Giemsa solution (Merck & Co., Inc.). The number of cells which incorporated BrdU and the total number of cells within one field of vision of a microscope (approximately 200 cells) were determined, and the proportion (%) of stained cells per field of vision was calculated. The above procedure was repeated 10 times, and the average value thereof was defined as the cell growth activity (%). The cell growth-inhibiting activity was calculated in the following manner. That is, the cell growth inhibition rate was calculated according to the following equation: X (%) = (1-B/A) x 100 [formula] where A is the growth activity when no peptide was added, and B is the growth activity when the test peptide was added.

[5] = tested on: Pseudomonas aeruginosa Bin H No. 1; type: cell-based; details: Bin H No. 1, pH 7
Method: as §1

MIC (µg/ml) BS [2] [µg/mL] | MIC (µg/ml) PV [3] [µg/mL] | MIC (µg/ml) PA [5] [µg/mL] | SMILES | Inhibition rate (%) ([4]; Concentration 1 µM) | further results
167 (≈ 103 µM) | 83 (≈ 51.2 µM) | 167 (≈ 103 µM) | CSCC[C@H](NC(=O)[C@H](CCCCN)NC(=O)[C@H](CCCNC(=N)N)NC(=O)[C@H](Cc1ccc(O)cc1)NC(=O)[C@H](CC(C)C)NC(C)=O)C(=O)N[C@@H](CCCNC(=N)N)C(=O)N[C@@H](CC(C)C)C(=O)N[C@@H](CCCNC(=N)N)C(=O)N[C@@H](Cc1ccc(O)cc1)C(=O)N1CCC[C@H]1C(=O)N[C@H](C(=O)NCCCC(N)=O)C(C)C [Compound (I-1), CH3CO-Leu-Tyr-Arg-Lys-Met-Arg-Leu-Arg-Tyr-Pro-Val-NH-(CH2)3CONH2] (Ac-LYRKMRLRYPV[GABA]-NH2) | 10 | inhibition at 123 µM ([1]; Concentration 123 µM (aqueous solution of test peptide provided for the test)): 85%
77 (≈ 47.1 µM) | 77 (≈ 47.1 µM) | 77 (≈ 47.1 µM) | CSCC[C@H](NC(=O)[C@H](CCCCN)NC(=O)[C@H](CCCNC(=N)N)NC(=O)[C@H](Cc1ccc(O)cc1)NC(=O)[C@H](CC(C)C)NC(C)=O)C(=O)N[C@@H](CCCNC(=N)N)C(=O)N[C@@H](CC(C)C)C(=O)N[C@@H](CCCNC(=N)N)C(=O)N[C@@H](Cc1ccc(O)cc1)C(=O)N1CCC[C@H]1C(=O)N[C@H](C(=O)NCCCCC(N)=O)C(C)C [Compound (I-2), CH3CO-Leu-Tyr-Arg-Lys-Met-Arg-Leu-Arg-Tyr-Pro-Val-NH-(CH2)4CONH2] (Ac-LYRKMRLRYPV[Ava]-NH2) | 68 | inhibition at 122 µM ([1]; Concentration 122 µM (aqueous solution of test peptide provided for the test)): 75%
88 (≈ 53.4 µM) | 175 (≈ 106 µM) | 175 (≈ 106 µM) | CSCC[C@H](NC(=O)[C@H](CCCCN)NC(=O)[C@H](CCCNC(=N)N)NC(=O)[C@H](Cc1ccc(O)cc1)NC(=O)[C@H](CC(C)C)NC(C)=O)C(=O)N[C@@H](CCCNC(=N)N)C(=O)N[C@@H](CC(C)C)C(=O)N[C@@H](CCCNC(=N)N)C(=O)N[C@@H](Cc1ccc(O)cc1)C(=O)N1CCC[C@H]1C(=O)N[C@H](C(=O)NCCCCCC(N)=O)C(C)C [Compound (I-3), CH3CO-Leu-Tyr-Arg-Lys-Met-Arg-Leu-Arg-Tyr-Pro-Val-NH-(CH2)5CONH2] (Ac-LYRKMRLRYPV[Ahx]-NH2) |  | inhibition at 121 µM ([1]; Concentration 121 µM (aqueous solution of test peptide provided for the test)): 77%; Inhibition rate (%) ([4]; Concentration 6 µM): 53%
129 (≈ 77.6 µM) | 129 (≈ 77.6 µM) | 129 (≈ 77.6 µM) | CSCC[C@H](NC(=O)[C@H](CCCCN)NC(=O)[C@H](CCCNC(=N)N)NC(=O)[C@H](Cc1ccc(O)cc1)NC(=O)[C@H](CC(C)C)NC(C)=O)C(=O)N[C@@H](CCCNC(=N)N)C(=O)N[C@@H](CC(C)C)C(=O)N[C@@H](CCCNC(=N)N)C(=O)N[C@@H](Cc1ccc(O)cc1)C(=O)N1CCC[C@H]1C(=O)N[C@H](C(=O)NCCCCCCC(N)=O)C(C)C [Compound (I-4), CH3CO-Leu-Tyr-Arg-Lys-Met-Arg-Leu-Arg-Tyr-Pro-Val-NH-(CH2)6CONH2] (Ac-LYRKMRLRYPV[Ahp]-NH2) |  | inhibition at 120 µM ([1]; Concentration 120 µM (aqueous solution of test peptide provided for the test)): 89%; Inhibition rate (%) ([4]; Concentration 25 µM): 47%
81 (≈ 48.3 µM) |  | 163 (≈ 97.2 µM) | CSCC[C@H](NC(=O)[C@H](CCCCN)NC(=O)[C@H](CCCNC(=N)N)NC(=O)[C@H](Cc1ccc(O)cc1)NC(=O)[C@H](CC(C)C)NC(C)=O)C(=O)N[C@@H](CCCNC(=N)N)C(=O)N[C@@H](CC(C)C)C(=O)N[C@@H](CCCNC(=N)N)C(=O)N[C@@H](Cc1ccc(O)cc1)C(=O)N1CCC[C@H]1C(=O)N[C@H](C(=O)NCCCCCCCC(N)=O)C(C)C [Compound (I-5), CH3CO-Leu-Tyr-Arg-Lys-Met-Arg-Leu-Arg-Tyr-Pro-Val-NH-(CH2)7CONH2] (Ac-LYRKMRLRYPV[Aoc]-NH2) | 70 | inhibition at 119 µM ([1]; Concentration 119 µM (aqueous solution of test peptide provided for the test)): 83%
 |  | 150 (≈ 86.5 µM) | CSCC[C@H](NC(=O)[C@H](CCCCN)NC(=O)[C@H](CCCNC(=N)N)NC(=O)[C@H](Cc1ccc(O)cc1)NC(=O)[C@H](CC(C)C)NC(C)=O)C(=O)N[C@@H](CCCNC(=N)N)C(=O)N[C@@H](CC(C)C)C(=O)N[C@@H](CCCNC(=N)N)C(=O)N[C@@H](Cc1ccc(O)cc1)C(=O)N1CCC[C@H]1C(=O)N[C@H](C(=O)NCCCCCCCCCCCC(N)=O)C(C)C [Compound (I-7), CH3CO-Leu-Tyr-Arg-Lys-Met-Arg-Leu-Arg-Tyr-Pro-Val-NH-(CH2)11CONH2] (Ac-LYRKMRLRYPV[12Ado]-NH2) | 39 | inhibition at 114 µM ([1]; Concentration 114 µM (aqueous solution of test peptide provided for the test)): 82%
 |  | 106 (≈ 54.1 µM) | CCCCCCCCCCCCCCCCCC(=O)N[C@@H](CC(C)C)C(=O)N[C@@H](Cc1ccc(O)cc1)C(=O)N[C@@H](CCCNC(=N)N)C(=O)N[C@@H](CCCCN)C(=O)N[C@@H](CCSC)C(=O)N[C@@H](CCCNC(=N)N)C(=O)N[C@@H](CC(C)C)C(=O)N[C@@H](CCCNC(=N)N)C(=O)N[C@@H](Cc1ccc(O)cc1)C(=O)N1CCC[C@H]1C(=O)N[C@H](C(=O)NCCCCCCCCCCCC(N)=O)C(C)C [Compound (I-8), C17H35CO-Leu-Tyr-Arg-Lys-Met-Arg-Leu-Arg-Tyr-Pro-Val-NH-(CH2)11CONH2] (Stearoyl-LYRKMRLRYPV[12Ado]-NH2) |  | inhibition at 20 µM ([1]; Concentration 20 µM (aqueous solution of test peptide provided for the test)): 76%

— patent EP0760376A1, “PEPTIDES INHIBITING PHOSPHOLIPASE C” (Kyowa Hakko Kogyo Co., Ltd., priority 1995, dated 1996)
